Measured values: patent US12692223B2, “Phenyl-sulfamoyl-benzoic acid derivatives as ERAP1-modulators” (GREY WOLF THERAPEUTICS LIMITED, priority 2021, dated 2026)

Target: T1, ERAP1 (Homo sapiens, UniProt Q9NZ08)
T1 construct: Purified ERAP1(37-941)-10His (ERAP1)
Test: ERAP1 mediated hydrolysis of an amide substrate measured in a biochemical system (10-mer inhibition assay)
Details: purified ERAP1(37-941)-10His; 10-mer substrate; 23° C. for 1 h; excitation 279 nm, emission 355 nm; read-out: IC50 vs Decapeptide WRVYEKC(Dnp)ALK-acid (where Dnp is Dinitrophenyl maleimide) (10-mer)
Protocol: Biological Assay 1: ERAP1 Mediated Hydrolysis of an Amide Substrate Measured in a Biochemical System
• 1× Assay buffer (AB): 25 mM Bis-tris propane, 0.05% w/v • Hydroxypropylmethylcellulose pH 7.75 made with Optima grade water • Decapeptide WRVYEKC(Dnp)ALK-acid (where Dnp is Dinitrophenyl maleimide) (10-mer) • L-Leucine 7-amido-4-methylcoumarin (L-AMC) • Purified ERAP1(37-941)-10His (ERAP1) Assay Procedure:
12.5 μL ERAP1 enzyme in 1×AB was combined with 250 nL test compound in DMSO. 12.5 μL of either 240 μM L-AMC in 1×AB or 100 μM 10-mer in 1×AB was added to the reaction and incubated at 23° C. for 1 h. For detection, plates were read at excitation 365 nm and emission 442 nm (L-AMC) or excitation 279 nm and emission 355 nm (10-mer). Compound IC50 was determined using a 4-parameter equation.

T1 sequence (Q9NZ08 37-941): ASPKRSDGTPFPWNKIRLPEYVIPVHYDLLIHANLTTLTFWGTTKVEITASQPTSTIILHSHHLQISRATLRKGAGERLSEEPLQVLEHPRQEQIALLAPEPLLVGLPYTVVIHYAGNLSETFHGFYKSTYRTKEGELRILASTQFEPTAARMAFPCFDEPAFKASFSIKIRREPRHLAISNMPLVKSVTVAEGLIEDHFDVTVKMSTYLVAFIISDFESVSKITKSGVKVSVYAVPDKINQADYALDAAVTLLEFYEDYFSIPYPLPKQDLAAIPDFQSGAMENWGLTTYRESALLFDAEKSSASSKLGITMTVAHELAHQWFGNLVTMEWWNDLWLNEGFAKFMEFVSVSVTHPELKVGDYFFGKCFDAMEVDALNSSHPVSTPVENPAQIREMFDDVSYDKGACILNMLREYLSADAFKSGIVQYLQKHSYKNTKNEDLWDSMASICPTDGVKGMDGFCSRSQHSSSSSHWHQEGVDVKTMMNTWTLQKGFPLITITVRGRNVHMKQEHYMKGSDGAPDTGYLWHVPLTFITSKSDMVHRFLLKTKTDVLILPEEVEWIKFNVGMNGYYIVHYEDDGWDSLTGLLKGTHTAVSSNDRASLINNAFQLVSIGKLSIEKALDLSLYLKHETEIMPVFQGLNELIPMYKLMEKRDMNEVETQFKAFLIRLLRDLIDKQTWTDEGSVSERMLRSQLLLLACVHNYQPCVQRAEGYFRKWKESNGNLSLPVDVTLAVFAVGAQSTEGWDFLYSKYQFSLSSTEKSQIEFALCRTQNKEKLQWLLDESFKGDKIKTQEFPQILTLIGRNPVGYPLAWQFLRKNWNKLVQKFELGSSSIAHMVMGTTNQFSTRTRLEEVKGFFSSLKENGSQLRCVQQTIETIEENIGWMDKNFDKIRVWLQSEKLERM

Compound | IC50 [nM]
O=C(O)c1ccc(C2CC2)c(S(=O)(=O)Nc2cc(-c3ccns3)c(F)cc2OC2CCCC2)c1 [Example 21, 3-(N-(2-(cyclopentyloxy)-4-fluoro-5-(isothiazol-5-yl)phenyl)sulfamoyl)-4-cyclopropylbenzoic acid] | 1 to 5
O=C(O)c1ccc(C2CC2)c(S(=O)(=O)Nc2cc(-c3ccns3)c(Cl)cc2OC2CCC2)c1 [Example 51, 3-(N-(4-chloro-2-cyclobutoxy-5-(isothiazol-5-yl)phenyl)sulfamoyl)-4-cyclopropylbenzoic acid] | < 1
COC1CCC1Oc1cc(Cl)c(C#N)cc1NS(=O)(=O)c1cc(C(=O)O)ccc1C1CC1 (single isomer, unassigned) [Example 139, 3-(N-(4-chloro-5-cyano-2-(trans-2-methoxycyclobutoxy)phenyl)sulfamoyl)-4-cyclopropylbenzoic acid] | > 5
N#Cc1cc(NS(=O)(=O)c2cc(C(=O)O)ccc2C2CC2)c(OC2CCC2O)cc1Cl (single isomer, unassigned) [Example 135, 3-(N-(4-chloro-5-cyano-2-(cis-2-hydroxycyclobutoxy)phenyl)sulfamoyl)-4-cyclopropylbenzoic acid] | > 5
CO[C@H]1C[C@@H](COc2cc(Cl)c(C#N)cc2NS(=O)(=O)c2cc(C(=O)O)ccc2C2CC2)C1 [Example 47, 3-(N-(4-chloro-5-cyano-2-((cis-3-methoxycyclobutyl)methoxy)phenyl)sulfamoyl)-4-cyclopropylbenzoic acid] | < 1
N#Cc1cc(NS(=O)(=O)c2cc(C(=O)O)ccc2C2CC2)c(OC2CCC23COC3)cc1Cl (stereo not shown) [Example 29, 3-(N-(2-((2-oxaspiro[3.3]heptan-5-yl)oxy)-4-chloro-5-cyanophenyl)sulfamoyl)-4-cyclopropylbenzoic acid] | < 1
CC1CCC1Oc1cc(Cl)c(C#N)cc1NS(=O)(=O)c1cc(C(=O)O)ccc1C1CC1 (single isomer, unassigned) [Example 123, 3-(N-(4-chloro-5-cyano-2-(2-methylcyclobutoxy)phenyl)sulfamoyl)-4-cyclopropylbenzoic acid] | < 1
N#Cc1cc(NS(=O)(=O)c2cc(C(=O)O)c(F)cc2C2CC2)c(OC2CC(F)(F)C2)cc1Cl [Example 17, 5-(N-(4-chloro-5-cyano-2-(3,3-difluorocyclobutoxy)phenyl)sulfamoyl)-4-cyclopropyl-2-fluorobenzoic acid] | < 1
C#CC1(Oc2cc(Cl)c(C#N)cc2NS(=O)(=O)c2cc(C(=O)O)ccc2C2CC2)CCC1 [Example 54, 3-(N-(4-chloro-5-cyano-2-(1-ethynylcyclobutoxy)phenyl)sulfamoyl)-4-cyclopropylbenzoic acid] | 1 to 5
N#Cc1cc(NS(=O)(=O)c2cc(C(=O)O)ccc2C2CC2)c(O[C@H]2C[C@H](C#N)C2)cc1Cl [Example 55, 3-(N-(4-chloro-5-cyano-2-(trans-3-cyanocyclobutoxy)phenyl)sulfamoyl)-4-cyclopropylbenzoic acid] | 1 to 5
C#CC1CCCC1Oc1cc(Cl)c(C#N)cc1NS(=O)(=O)c1cc(C(=O)O)ccc1C1CC1 (single isomer, unassigned) [Example 116, 3-(N-(4-chloro-5-cyano-2-((trans-2-ethynylcyclopentyl)oxy)phenyl)sulfamoyl)-4-cyclopropylbenzoic acid] | > 5
N#Cc1cc(NS(=O)(=O)c2cc(C(=O)O)ccc2C2CC2)c(OC2CC3(CC3)C2)cc1Cl [Example 34, 3-(N-(4-chloro-5-cyano-2-(spiro[2.3]hexan-5-yloxy)phenyl)sulfamoyl)-4-cyclopropylbenzoic acid] | < 1
N#Cc1cc(NS(=O)(=O)c2cc(C(=O)O)ccc2C2CC2)c(OC2CCCC2)cc1Cl [Example 1, 3-(N-(4-chloro-5-cyano-2-(cyclopentyloxy)phenyl)sulfamoyl)-4-cyclopropylbenzoic acid] | < 1
COc1ccc(C(=O)O)cc1S(=O)(=O)Nc1cc(C(F)(F)F)ccc1OC1CCCCC1 [Example 3, 3-(N-(2-(cyclohexyloxy)^−5-(trifluoromethyl)phenyl)sulfamoyl)-4-methoxybenzoic acid] | > 5
N#Cc1cc(NS(=O)(=O)c2cc(C(=O)O)ccc2C2CC2)c(OCC2(F)COC2)cc1Cl [Example 37, 3-(N-(4-chloro-5-cyano-2-((3-fluorooxetan-3-yl)methoxy)phenyl)sulfamoyl)-4-cyclopropylbenzoic acid] | 1 to 5
N#Cc1cc(NS(=O)(=O)c2cc(C(=O)O)ccc2C2CC2)c(OC2CCCC23CC3)cc1Cl (stereo not shown) [Example 69, 3-(N-(4-chloro-5-cyano-2-(spiro[2.4]heptan-4-yloxy)phenyl)sulfamoyl)-4-cyclopropylbenzoic acid] | < 1
O=C(O)c1ccc(C2CC2)c(S(=O)(=O)Nc2cc(-c3ccns3)c(Cl)cc2OC2CCCC2)c1 [Example 22, 3-(N-(4-chloro-2-(cyclopentyloxy)−5-(isothiazol-5-yl)phenyl)sulfamoyl)-4-cyclopropylbenzoic acid] | < 1
CC1(C)CCC1Oc1cc(Cl)c(C#N)cc1NS(=O)(=O)c1cc(C(=O)O)ccc1C1CC1 (single isomer, unassigned) [Example 94, 3-(N-(4-chloro-5-cyano-2-(2,2-dimethylcyclobutoxy)phenyl)-sulfamoyl)-4-cyclopropylbenzoic acid] | < 1
N#Cc1cc(NS(=O)(=O)c2cc(C(=O)O)ccc2C2CC2)c(OC2CCCC2O)cc1Cl (racemic) [Example 98, 3-(N-(4-chloro-5-cyano-2-((cis-2-hydroxycyclopentyl)oxy)phenyl)sulfamoyl)-4-cyclopropylbenzoic acid] | < 1
COC1CCC1Oc1cc(Cl)c(C#N)cc1NS(=O)(=O)c1cc(C(=O)O)ccc1C1CC1 (single isomer, unassigned) [Example 138, 3-(N-(4-chloro-5-cyano-2-(trans-2-methoxycyclobutoxy)phenyl)sulfamoyl)-4-cyclopropylbenzoic acid] | < 1
N#Cc1cc(NS(=O)(=O)c2cc(C(=O)O)ccc2C2CC2)c(OCC2CNC2)cc1Cl [Example 43, 3-(N-(2-(azetidin-3-ylmethoxy)-4-chloro-5-cyanophenyl)sulfamoyl)-4-cyclopropylbenzoic acid] | > 5
C#CC1(Oc2cc(Cl)c(C#N)cc2NS(=O)(=O)c2cc(C(=O)O)ccc2C2CC2)CCCC1 [Example 30, 3-(N-(4-chloro-5-cyano-2-((1-ethynylcyclopentyl)oxy)phenyl)sulfamoyl)-4-cyclopropylbenzoic acid] | 1 to 5
N#Cc1cc(NS(=O)(=O)c2cc(C(=O)O)ccc2C2CC2)c(OCC2CCOC2)cc1Cl (stereo not shown) [Example 28, 3-(N-(4-chloro-5-cyano-2-((tetrahydrofuran-3-yl)methoxy)phenyl)sulfamoyl)-4-cyclopropylbenzoic acid] | 1 to 5
CC1CCCC1Oc1cc(Cl)c(C#N)cc1NS(=O)(=O)c1cc(C(=O)O)ccc1C1CC1 (racemic) [Example 90, 3-(N-(4-chloro-5-cyano-2-((trans-2-methylcyclopentyl)oxy)phenyl)sulfamoyl)-4-cyclopropylbenzoic acid] | < 1
CC1(COc2cc(Cl)c(C#N)cc2NS(=O)(=O)c2cc(C(=O)O)ccc2C2CC2)CCC1 [Example 27, 3-(N-(4-chloro-5-cyano-2-((1-methylcyclobutyl)methoxy)phenyl)sulfamoyl)-4-cyclopropylbenzoic acid] | < 1
